Values quoted from earlier work in US11603570B2, “Methods for the detection and treatment of leukemias that are responsive to DOT1L inhibition” (MEMORIAL SLOAN KETTERING CANCER CENTER, priority 2013, dated 2023).
Read-outs that look alike come from different tables or passages of the source.

Columns and labels:
[1] = dogs; cited from earlier work
[2] = test system: MLL-rearranged leukemia xenograft; details: cited from earlier work
[3] = test system: MLL-translocated leukemia cells; details: infusion, including continuous infusion; cited from earlier work
[4] = cited from earlier work
[5] = test system: other methyltransferases; details: in words; FIG. 1B; cited from earlier work
[6] = mice or rats, at a dose efficacious against MLL-translocated leukemia cells; cited from earlier work
[7] = rats; cited from earlier work

For `CC(C)N(C[C@H]1O[C@@H](n2cnc3c(N)ncnc32)[C@H](O)[C@@H]1O)C1CC(CCc2nc3cc(C(C)(C)C)ccc3[nH]2)C1` (stereo partly drawn) [EPZ005676, (2R,3R,4S,5R)-2-(6-amino-9H-purin-9-yl)-5-((((1r,3S)-3-(2-(5-(tert-butyl)-1H-benzo[d]imidazol-2-yl)ethyl)cyclobutyl)(isopropyl)amino)methyl)tetrahydrofuran-3,4-diol], the “effective pharmacokinetic half-life in systemic circulation” value [1] is given as 1.5 h, the “tumor response at the highest dose” value ([2]; continuous intravenous infusion for 21 days, highest dose) is given as “complete tumor regressions” and the anti-tumor activity ([2]; continuous intravenous infusion for 21 days) is given as “dose-dependent anti-tumor activity”. The “no regrowth after the cessation of treatment” value ([2]; highest dose) was “up to 32 days”, the “growth of MLL-translocated leukemia cells in mice” value [3] was “suppresses the growth” and the “solubility in aqueous solution” value [4] was “soluble”. For the same molecule, the “specificity for DOT1L / H3K79me as compared to other methyl transferases” value [5] was “highly selective”, the hematopoietic toxicity [6] was “did not show hematopoietic toxicity” and the “effective pharmacokinetic half-life in systemic circulation” value [7] was 15 min.
